Here are results for 33 compounds from ChEMBL document CHEMBL1770115, “Fused heterocyclic M1 positive allosteric modulators” (Bioorg Med Chem Lett, 2011).

The source made the active and inactive calls. The calls are words filed in the database; no cut-off is given here. Some results are limits rather than exact numbers.

Data set [1] deals with T1, Muscarinic acetylcholine receptor M1 (Homo sapiens) (UniProt P11229).
T1 sequence (whole entry): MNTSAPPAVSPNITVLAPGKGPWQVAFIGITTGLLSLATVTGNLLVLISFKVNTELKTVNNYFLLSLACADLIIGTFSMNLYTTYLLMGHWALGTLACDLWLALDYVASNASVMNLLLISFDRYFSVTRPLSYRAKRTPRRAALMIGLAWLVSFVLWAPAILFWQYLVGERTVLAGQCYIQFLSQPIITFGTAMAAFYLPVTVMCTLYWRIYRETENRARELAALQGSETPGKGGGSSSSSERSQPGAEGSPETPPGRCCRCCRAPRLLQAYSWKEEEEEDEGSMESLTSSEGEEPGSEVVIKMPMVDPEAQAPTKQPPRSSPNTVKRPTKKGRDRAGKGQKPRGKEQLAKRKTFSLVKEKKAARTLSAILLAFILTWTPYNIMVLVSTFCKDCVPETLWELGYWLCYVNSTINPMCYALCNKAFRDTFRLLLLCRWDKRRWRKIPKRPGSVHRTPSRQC
Put plainly: Positive allosteric modulation of human muscarinic M1 receptor expressed in CHO cells assessed as effect on acetylcholine-induced calcium mobilization by FLIPR assay. Format: functional, cell-based. In general terms: A change in cytosolic calcium serves as a functional read-out for many receptors and channels.

In data set [2] the test system is Plasma. The experiment in a line: Plasma concentration in Sprague-Dawley rat at 10 mg/kg, po. Details: dose 10 mg/kg, route oral. The settings on record: in vivo. In kind it is ADME, organism-based.
Data set [3] relates to Brain. Put plainly: Drug concentration in Sprague-Dawley rat barin at 10 mg/kg, po. In kind it is ADME, organism-based. The following applies: in vivo, read-out: Drug uptake. Details: dose 10 mg/kg, route oral.
For data set [4], the system named is Cerebrospinal fluid. The experiment in a line: Drug concentration in Sprague-Dawley rat cerebrospinal fluid at 10 mg/kg, po. Details: dose 10 mg/kg, route oral. Format: ADME, organism-based. The settings on record: in vivo, read-out: Drug uptake.
The nature of data set [5]: Ratio of drug level in brain to plasma in Sprague-Dawley rat at 10 mg/kg, po. In kind it is ADME, organism-based. Details: dose 10 mg/kg, route oral.
The target in data set [6] is T1, Muscarinic acetylcholine receptor M1 (Homo sapiens). The experiment in a line: Positive allosteric modulation of human muscarinic M1 receptor expressed in CHO cells assessed as potentiation of acetylcholine-induced calcium mobilization at 1 uM by FLIPR assay relative to control. Format: functional, cell-based.
Data set [7] has the same target. Put plainly: Agonist activity at human muscarinic M1 receptor expressed in CHO cells assessed as increase of calcium mobilization at 100 uM by FLIPR assay. Format: functional, cell-based.

For the compound `O=C(O)c1cn(C/C=C/c2ccc(F)cc2)c2c(F)cccc2c1=O`, the IP in data set [1] came out at 120 nM.

Take `O=C(O)c1cn(Cc2ccc3ncccc3c2)c2cccc(F)c2c1=O`: the IP in data set [1] is 459 nM.

On to `CN1CCCc2cc(Cn3cc(C(=O)O)c(=O)c4c(F)cccc43)ccc21`, for which the IP in data set [1] is 624 nM.

`Cn1ncc2cc(Cn3cc(C(=O)O)c(=O)c4c(F)cccc43)ccc21`: in data set [1], the IP came to 72 nM. For the same compound, the concentration is 13200 nM in data set [2], 538 nM in data set [3] and 155 nM in data set [4]. Further, the Kp in data set [5] worked out at 0.04.

Consider `O=C1Cc2cc(Cn3cc(C(=O)O)c(=O)c4c(F)cccc43)ccc2N1`, for which the IP in data set [1] was found to be 81 nM.

Consider `Cc1ccccc1/C=C/Cn1cc(C(=O)O)c(=O)c2cccc(F)c21`, for which the IP in data set [1] is greater than 10000 nM.

In the case of `O=C(O)c1cn(Cc2ccc3ccccc3c2)c2c(F)ccc(F)c2c1=O`, the IP in data set [1] came to 266 nM.

Regarding `COc1ccc(/C=C/Cn2cc(C(=O)O)c(=O)c3cccc(F)c32)cc1`, the IP in data set [1] stood at 380 nM.

Consider `O=C(O)c1cn(C/C=C/c2ccncc2)c2c(F)cccc2c1=O`, for which the IP in data set [1] is 610 nM.

As to `O=C(O)c1cn(C/C=C/c2cccc(F)c2)c2c(F)cccc2c1=O`, in data set [1], the IP came out at 370 nM.

As for `O=C(O)c1cn(C/C=C/c2cccnc2)c2c(F)cccc2c1=O`, the IP in data set [1] was greater than 10000 nM.

As to `CN1CCN(C)c2cc(Cn3cc(C(=O)O)c(=O)c4c(F)cccc43)ccc21`, the IP in data set [1] was found to be 3800 nM.

On to `O=C(O)c1cn(Cc2ccc3[nH]c(=O)[nH]c3c2)c2cccc(F)c2c1=O`, for which the IP in data set [1] turned out to be 617 nM.

As for `O=C(O)c1cn(Cc2ccc3c(c2)OCCO3)c2cccc(F)c2c1=O`, the IP in data set [1] came out at 84 nM. Also, the values for the concentration in data set [2], in data set [3] and in data set [4] were 3700 nM, 577 nM and 119 nM, respectively. The Kp in data set [5] was found to be 0.15.

In the case of `O=C(O)c1cn(Cc2ccc3ccccc3c2)c2c(F)cccc2c1=O`, the IP in data set [1] turned out to be 80 nM.

`O=C(O)c1cn(Cc2ccc3c(c2)CCC3O)c2cccc(F)c2c1=O` (configuration not stated): the IP in data set [1] turned out to be 97 nM.

In the case of `O=C(O)c1cn(C/C=C/c2ccccc2F)c2c(F)cccc2c1=O`, the IP in data set [1] is 240 nM.

As for `O=C(O)c1cn(C/C=C/c2ccccn2)c2c(F)cccc2c1=O`, in data set [1], the IP came out at 5200 nM.

On to `O=C(O)c1cn(Cc2ccc3[nH]ncc3c2)c2cccc(F)c2c1=O`, for which the IP in data set [1] is 104 nM.

As for `COc1ccccc1/C=C/Cn1cc(C(=O)O)c(=O)c2cccc(F)c21`, the IP in data set [1] is greater than 10000 nM.

As to `O=C(O)c1cn(C/C=C/c2ccccc2)c2c(F)cccc2c1=O`, in data set [1], the IP turned out to be 270 nM.

In the case of `O=C(O)c1cn(Cc2nc3ccccc3s2)c2cccc(F)c2c1=O`, in data set [1], the IP came to 1800 nM.

`CN(C)c1ccc(/C=C/Cn2cc(C(=O)O)c(=O)c3cccc(F)c32)cc1`: in data set [1], the IP came out at 860 nM.

Regarding `Cc1cccc(/C=C/Cn2cc(C(=O)O)c(=O)c3cccc(F)c32)c1`, the IP in data set [1] is 250 nM.

`Cn1cc2cc(Cn3cc(C(=O)O)c(=O)c4c(F)cccc43)ccc2n1`: the IP in data set [1] stood at 142 nM.

As to `O=C(O)c1cn(Cc2ccc3ccccc3c2)c2cccc(F)c2c1=O`, the IP in data set [1] amounted to 69 nM. Moreover, the concentration was found to be 676 nM in data set [2], 178 nM in data set [3] and 18 nM in data set [4]. In addition, the Kp in data set [5] is 0.26. In addition, the fold change (FC) in data set [6] turned out to be 100. In data set [7], the result was Active.

Consider `O=C(O)c1cn(Cc2ccc3ccccc3n2)c2cccc(F)c2c1=O`, for which the IP in data set [1] amounted to 897 nM.

For `O=C(O)c1cn(C/C=C/c2ccc(Cl)cc2)c2c(F)cccc2c1=O`, the IP in data set [1] came to 320 nM.

In the case of `Cc1ccc(/C=C/Cn2cc(C(=O)O)c(=O)c3cccc(F)c32)cc1`, the IP in data set [1] worked out at 910 nM.

Regarding `N#Cc1ccc(/C=C/Cn2cc(C(=O)O)c(=O)c3cccc(F)c32)cc1`, the IP in data set [1] was 1000 nM.

In the case of `COc1cccc(/C=C/Cn2cc(C(=O)O)c(=O)c3cccc(F)c32)c1`, the IP in data set [1] came to 1400 nM.

With `CN1CCc2cc(Cn3cc(C(=O)O)c(=O)c4c(F)cccc43)ccc21`, in data set [1], the IP was greater than 10000 nM.

As for `O=C(O)c1cn(CC#Cc2ccccc2)c2c(F)cccc2c1=O`, the IP in data set [1] turned out to be 3400 nM.

In general, Kp refers to the ratio of the level in a tissue or fluid to that in plasma or blood.
